The text below walks through data of US7179817B2, “Carboxylic acid derivatives and drugs containing the same as the active ingredient” (ONO Pharmaceutical Co., Ltd., priority 2001, dated 2007).

The pEC50 is the EC50 on a negative log10 scale, so that one unit is a factor of ten.

The structures appear in SMILES notation. pEC50: −log10 of the molar value. Counter-ions that a name gives are not always drawn.

T1 sequence (P21453 whole entry): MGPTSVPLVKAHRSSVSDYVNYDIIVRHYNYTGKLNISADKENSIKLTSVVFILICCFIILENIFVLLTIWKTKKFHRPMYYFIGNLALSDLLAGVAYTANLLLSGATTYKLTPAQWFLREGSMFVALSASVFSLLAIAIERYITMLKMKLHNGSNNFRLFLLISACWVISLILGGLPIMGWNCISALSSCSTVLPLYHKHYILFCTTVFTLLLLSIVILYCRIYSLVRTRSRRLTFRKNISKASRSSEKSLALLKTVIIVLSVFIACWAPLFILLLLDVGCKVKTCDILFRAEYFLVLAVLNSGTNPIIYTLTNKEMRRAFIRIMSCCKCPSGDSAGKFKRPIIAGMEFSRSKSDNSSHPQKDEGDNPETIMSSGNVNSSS

The experiment concerns the target T1, human EDG-1 (Homo sapiens, UniProt P21453).
T1 construct: expressed in transfected cells; host or cells: CHO (Chinese Hamster Ovary) cells, cultured under Blasticidin selection
The experiment can be described thus: Assessment of an agonistic action by monitoring the intracellular calcium ion. Type of experiment: cell-based. Particulars: human EDG-1 gene over expression CHO cells; Fura2 intracellular Ca2+ increase; Concentration of Half-100 nM S1P Ca2+ release. The protocol: (1) Assessment of an Agonistic Action by Monitoring the Intracellular Calcium Ion
The assessment of an agonistic action for the receptor was carried out using the human EDG-1 gene over expression cells (Chinese Hamster Ovary, CHO). EDG-1 expression cells were cultured with Ham's F12 (GIBCO BRL, No. 11765-047) medium containing 10% FBS, Penicillin/Streptomycin and Blasticidin (5 μg/mL). First, in order to load Fura2-AM (Dojindo, No. 348-05831) in the cells, the cells were incubated by 5 μM Fura2-AM solution (Ham's F12 medium containing 10% FBS, 20 mM HEPES pH7.4, 2.5 mM Probenecid (Sigma, catalog No.P-8761)) at 37° C. for 60 min. Next, the cells were washed once by Hanks solution containing 20 mM HEPES pH7.4, 2.5 mM Probenecid and soaked in the Hanks solution until assay.
The plate was set on the fluorescence drug screening system (Hamamatsu photonics FDSS-2000). After measurement of the background signal for […], the solution of the assay compound was added. The test compounds were added at the final concentration range of between 0.1 nM and 10 μM as the final dimethyl sulfoxide (DMSO) concentration made to 1/1000 of the original solution. Fura2-Ca^2+ fluorescence excited at 340 nm and 380 nm was measured every 3 seconds at emission wavelength 500 nm. Intracellular Ca^2+ concentration was assessed with fluorescent ratio of excitation wavelength 340 nm and 380 nm. Agonistic activity was calculated as below, that is, the control value (A) was obtained by measuring the response of 100 nM S1P (BIOMOL:M9076) after adding DMSO to the well for the test compounds, and (A) was compared with the value (B) which is the difference of fluorescent ratio obtained by measuring response between the pre and post of test compounds added. Rate of intracellular Ca^2+ increase (%) was calculated as following equation. rate of increase (%)=(B/A)×100
Moreover, rate of increase was calculated at each concentration and EC50 (Concentration of Half—100 nM S1P Ca^2+ release) of each compound was calculated setting the maximal concentration of the compound giving the response corresponding to that of S1P at the concentration of 100 nM.
In the case of `O=C(O)CNC(=O)CCc1ccc(CCCCCCc2ccccc2)cc1` [Example 28, 2-[3-(4-(6-phenylhexyl)phenyl)propanoylamino]acetic acid], the negative logarithm of the EC50 (pEC50) was 7.60.

In the case of `O=C(O)c1cncc(C(=O)NCCc2ccc(OCCCCCc3ccccc3)cc2)c1` [Example 16(3), 5-[2-(4-(5-phenylpentyloxy)phenyl)ethylaminocarbonyl]pyridine-3-carboxylic acid], the negative logarithm of the EC50 (pEC50) is 8.35.

Consider `O=C(CCc1ccc(OCCCCCc2ccccc2)cc1)Nc1ccc(C(=O)O)c(C(=O)O)c1` [Example 2(3), 2-carboxy-5-[3-(4-(5-phenylpentyloxy)phenyl)propanoylamino]benzoic acid], for which the pEC50 is 8.85.

Turning to `O=C(NCCc1ccc(OCCCCCc2ccccc2)cc1)c1ccc(C(=O)O)c(C(=O)O)c1` [Example 19, 2-carboxy-5-[2-(4-(5-phenylpentyloxy)phenyl)ethylaminocarbonyl]benzoic acid], the negative logarithm of the EC50 (pEC50) was 8.82.

Take `O=C(O)CCNCCc1ccc(OCCCCCc2ccccc2)cc1` [Example 32, 3-[2-(4-(5-phenylpentyloxy)phenyl)ethylamino]propanoic acid hydrochloride]: the negative logarithm of the EC50 (pEC50) was 7.52.

Take `O=C(CCc1ccc(OCCCCCc2ccccc2)cc1)Nc1cc(Cl)c(Cl)c(C(=O)O)c1` [Example 9(6), 2,3-dichloro-5-[3-(4-(5-phenylpentyloxy)phenyl)propanoylamino]benzoic acid]: the pEC50 was 8.14.

Turning to `O=C(CCc1ccc(OCCCCCc2ccccc2)cc1)Nc1ccc(Cl)c(C(=O)O)c1` [Example 2(1), 2-chloro-5-[3-(4-(5-phenylpentyloxy)phenyl)propanoylamino]benzoic acid], the negative-log EC50 (pEC50) was 8.05.

Consider `O=C(NCCc1ccc(OCCCCCc2ccccc2)cc1)c1ccc(Cl)c(C(=O)O)c1` [Example 16, 2-chloro-5-[2-(4-(5-phenylpentyloxy)phenyl)ethylaminocarbonyl]benzoic acid], for which the negative logarithm of the EC50 (pEC50) is 8.08.
